Experimental data published in US20250369954A1, “PLATFORM AND METHOD TO CO[…] FUN[…] CARD[…] OTHER CELLS ON BOTH SIDES OF A POROUS MEMBRANE” (Government of the United States of America, as represented …, priority 2024, published 2025).

Tested on: hiPSC-CM cells
Test: Impedance measurement of cardiomyocyte beating on the microfluidic device
Assay type: cell-based, human
Conditions: 1 μM verapamil, after 10 minutes of treatment, hiPSC-CM on porous membrane
Method: In one embodiment, human induced pluripotent stem cell-derived cardiomyocytes (hiPSC-CM) were cultured directly on the PET membrane of the microfluidic device.
Cells in this example were trapped in the region of interest within the device using dielectrophoretic cell capture, directing cells from the microfluidic channel to the electrode. In this example, the entire electrode was covered with cells in increasing density from around 1 to 3 minutes. The following parameters for dielectrophoresis were used in this example: 4-6 Vpp, 12 MHz, […] μl min-1.
In one embodiment, hiPSC-CM cells are captured on one side of the porous membrane as in Example 1. The cardiomyocytes are treated with 1 μM verapamil, a Ca^2+ channel blocker used for treating arrhythmia.

In the case of `COc1ccc(CCN(C)CCCC(C#N)(c2ccc(OC)c(OC)c2)C(C)C)cc1OC` (stereo not shown) [verapamil], the “effect on cardiomyocyte beating (change in impedance)” value is reported as “cessation of cardiomyocyte beating”.
